According to the NIST ThermoML archive (doi:10.1016/j.jct.2019.06.023):

Assay: mn = molality of the nth substance listed, in mol/kg
Conditions: 100 kPa, Liquid; for speed of sound: Frequency=3 MHz, Single path-length method; for mass density: Vibrating tube method

O=C([O-])C(=O)[O-].[K+].[K+] [potassium oxalate] + O
Conditions	mass density, 288.15 K [kg/m3]	mass density, 298.15 K [kg/m3]	mass density, 308.15 K [kg/m3]	mass density, 318.15 K [kg/m3]	speed of sound, 288.15 K [m/s]	speed of sound, 298.15 K [m/s]	speed of sound, 308.15 K [m/s]	speed of sound, 318.15 K [m/s]
m1 = 0.2	1023.62	1021.1	1017.79	1013.81	1497	1524.8	1545.9	1561.2
m1 = 0.4	1046.97	1044.13	1040.55	1036.39	1525.3	1550.9	1570.5	1584.6
m1 = 0.6	1069.58	1066.44	1062.69	1058.36	1552.3	1576.4	1594.5	1607.1
m1 = 0.8	1092.28	1088.95	1084.89	1080.46	1580.5	1602.3	1618.8	1630.1
